According to article PMC6664820, “Novel natural and synthetic inhibitors of solute carriers SGLT1 and SGLT2” (Pharmacology Research & Perspectives, 2019):
Structures can show the parent of a compound that is named as a salt. Non-standard residues stand in square brackets, D forms with d. Residues, ends and D or L forms follow the SMILES beside them. pGlu = O=C1CC[CH](C(=O)O)N1

Legend:
SGLT1 = target: T1, SGLT1 (Homo sapiens, UniProt P13866); experiment: SGLT1 inhibition assay for validation of screening hits and similar compounds (1‐NBD‐glucose uptake, CHO‐hSGLT1 cells); format: cell-based; set-up: activity: dose or concentration left out as unconfirmed; conditions: for remaining activity at 5 µM / remaining activity at 50 µM: 0.5 h, concentration not given, read-out: NORMALIZED SGLT1 ACTIVITY (%); for SGLT1/2 inhibition stated in words: SGLT1 and/or SGLT2, discussion statements; for inhibition at 50 µM: read-out: SGLT1 inhibition
T1 sequence (P13866 1-664): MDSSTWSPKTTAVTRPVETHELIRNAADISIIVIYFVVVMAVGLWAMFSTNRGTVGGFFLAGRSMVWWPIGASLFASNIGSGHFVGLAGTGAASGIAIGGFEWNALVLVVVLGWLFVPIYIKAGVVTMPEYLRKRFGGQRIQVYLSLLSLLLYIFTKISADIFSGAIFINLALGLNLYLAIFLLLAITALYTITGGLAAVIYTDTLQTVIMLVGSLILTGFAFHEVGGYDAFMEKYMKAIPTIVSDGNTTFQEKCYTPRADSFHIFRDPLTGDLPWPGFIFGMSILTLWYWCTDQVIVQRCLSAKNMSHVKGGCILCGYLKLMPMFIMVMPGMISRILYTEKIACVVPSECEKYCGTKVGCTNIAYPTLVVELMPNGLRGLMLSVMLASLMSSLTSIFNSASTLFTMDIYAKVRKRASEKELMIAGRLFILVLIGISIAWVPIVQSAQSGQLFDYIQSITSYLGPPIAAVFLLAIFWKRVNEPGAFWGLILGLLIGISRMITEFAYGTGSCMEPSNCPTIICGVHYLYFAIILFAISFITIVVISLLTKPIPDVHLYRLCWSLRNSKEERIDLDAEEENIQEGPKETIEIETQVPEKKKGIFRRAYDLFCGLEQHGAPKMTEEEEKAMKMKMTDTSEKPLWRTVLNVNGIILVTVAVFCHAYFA

hSGLT2 = target: T2, hSGLT2 (Homo sapiens, UniProt P31639); experiment: SGLT2 inhibition assay for validation of screening hits and similar compounds (1‐NBD‐glucose uptake, CHO‐hSGLT2 cells); format: cell-based; conditions: for remaining activity at 5 µM / remaining activity at 50 µM: 0.5 h, mean, concentration not given, read-out: NORMALIZED SGLT2 ACTIVITY (%); for SGLT2/SGLT1 ACTIVITY RATIO, first concentration / SGLT2/SGLT1 ACTIVITY RATIO, second concentration: ratio of normalized SGLT2 to SGLT1 activity; for SGLT2/SGLT1 ACTIVITY RATIO 5 uM Mean: ratio of normalized SGLT2 to SGLT1 activity at 5 uM
T2 sequence (P31639 1-672): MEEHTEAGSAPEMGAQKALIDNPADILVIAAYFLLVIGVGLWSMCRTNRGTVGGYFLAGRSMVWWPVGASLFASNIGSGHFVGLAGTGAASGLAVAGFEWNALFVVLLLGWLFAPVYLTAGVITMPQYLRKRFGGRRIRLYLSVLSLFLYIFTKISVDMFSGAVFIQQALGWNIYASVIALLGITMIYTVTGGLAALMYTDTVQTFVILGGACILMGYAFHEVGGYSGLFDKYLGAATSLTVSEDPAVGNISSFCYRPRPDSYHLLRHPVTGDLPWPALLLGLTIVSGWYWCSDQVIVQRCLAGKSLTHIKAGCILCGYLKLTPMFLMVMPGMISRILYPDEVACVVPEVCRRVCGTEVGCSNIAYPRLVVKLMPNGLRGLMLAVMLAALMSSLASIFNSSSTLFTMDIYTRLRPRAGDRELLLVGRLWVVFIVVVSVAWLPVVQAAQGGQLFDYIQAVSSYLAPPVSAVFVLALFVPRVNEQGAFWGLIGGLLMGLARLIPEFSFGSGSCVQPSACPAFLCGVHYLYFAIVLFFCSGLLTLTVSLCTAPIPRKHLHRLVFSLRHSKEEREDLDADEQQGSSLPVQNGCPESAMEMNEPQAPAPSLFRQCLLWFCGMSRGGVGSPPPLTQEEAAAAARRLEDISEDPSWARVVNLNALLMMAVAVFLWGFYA

[1] = mean inhibition with 50 μmol/L inhibitor

`CN1CCC(N2CC[C@H](c3nc4cc(Cl)ccc4o3)C2)CC1` gave a remaining activity at 5 µM (SGLT1; mean) of 116%, a remaining activity at 50 µM (SGLT1; mean) of 115% and a remaining activity at 5 µM (hSGLT2) of 101%. The remaining activity at 50 µM (hSGLT2) was 85%.

`OC(CCN1CCCCC1)(c1ccccc1)C1CC2C=CC1C2` (stereo not drawn) [biperiden, reference compound] was tested, and the “SGLT1/2 inhibition stated in words” value (SGLT1) was “novel SGLT1/2 inhibitors”.

In the case of `CCCCCCCCCCCCN(C)C` [Dimethyldodecylamine], the “SGLT2/SGLT1 ACTIVITY RATIO, first concentration” value (hSGLT2) is reported as 0.9 and the “SGLT2/SGLT1 ACTIVITY RATIO, second concentration” value (hSGLT2) is reported as 1.0.

With `O[C@@H]1CCCC[C@H]1N1CCC(c2ccccc2)CC1` (racemic) [vesamicol, reference compound] the remaining activity at 5 µM (SGLT1; mean) was 93%, the remaining activity at 50 µM (SGLT1; mean) was 51% and the “SGLT1/2 inhibition stated in words” value (SGLT1) was “showed SGLT1/2 inhibition”. It also gave a remaining activity at 5 µM (hSGLT2) of 91% and a remaining activity at 50 µM (hSGLT2) of 71%.

For `Cc1cccc(C)c1NC(=O)CC12CCCN1CCC2` [Pilsicainide], the remaining activity at 5 µM (SGLT1; mean) was 94%, the remaining activity at 50 µM (SGLT1; mean) was 89% and the remaining activity at 5 µM (hSGLT2) was 90%. It also gave a remaining activity at 50 µM (hSGLT2) of 78%.

`CN1CCC(C#N)(c2ccccc2)CC1` showed a remaining activity at 5 µM (SGLT1; mean) of 109%, a remaining activity at 50 µM (SGLT1; mean) of 105% and a remaining activity at 5 µM (hSGLT2) of 105%. It also gave a remaining activity at 50 µM (hSGLT2) of 102%.

In the case of `CN(C)CCCN1c2ccccc2CCc2ccccc21` [imipramine, reference compound], the “SGLT2/SGLT1‐50μmol/L (ratio of SGLT2 to SGLT1 activities with 50 μmol/L inhibitor)” value (SGLT1) is reported as 0.4 and the inhibition at 50 µM (SGLT1; [1]) is reported as 24%.

`CN1CCCCC1c1ccc(-c2cccnc2)nc1` (stereo not drawn) [Anabasamine] showed a remaining activity at 5 µM (SGLT1; mean) of 114%, a remaining activity at 50 µM (SGLT1; mean) of 100% and a remaining activity at 5 µM (hSGLT2) of 103%. For the same compound, the remaining activity at 50 µM (hSGLT2) was 91%.

For `Cc1nc(-c2cccs2)cc([C@H]2CN3CC[C@H]2C[C@@H]3CO)n1`, the remaining activity at 5 µM (SGLT1; mean) was 120%, the remaining activity at 50 µM (SGLT1; mean) was 115% and the remaining activity at 5 µM (hSGLT2) was 110%. It also gave a remaining activity at 50 µM (hSGLT2) of 103%.

`Fc1ccc(-c2noc([C@@H]3CCCN3Cc3ccccc3F)n2)nc1` showed a remaining activity at 5 µM (SGLT1; mean) of 125%, a remaining activity at 50 µM (SGLT1; mean) of 105% and a remaining activity at 5 µM (hSGLT2) of 110%. For the same compound, the remaining activity at 50 µM (hSGLT2) was 91%.

In the case of `CN(C)CCCN1c2ccccc2CCc2ccccc21` [Imipramine HCl], the “SGLT2/SGLT1 ACTIVITY RATIO 5 uM Mean” value (hSGLT2) is reported as 0.743.

In the case of `CNCCCN1c2ccccc2CCc2ccccc21` [desipramine, reference compound], the “SGLT2/SGLT1‐50μmol/L (ratio of SGLT2 to SGLT1 activities with 50 μmol/L inhibitor)” value (SGLT1) is reported as 0.5 and the SGLT1 inhibition (SGLT1; [1]) is reported as “no inhibition”.

`OC1(c2ccccc2)CCNC2CCCCC21` (stereo not drawn) [4-Phenyldecahydro-4-quinolinol] gave a remaining activity at 5 µM (SGLT1; mean) of 98%, a remaining activity at 50 µM (SGLT1; mean) of 97% and a remaining activity at 5 µM (hSGLT2) of 94%. For the same compound, the remaining activity at 50 µM (hSGLT2) was 81%.

In the case of `NC(=O)C1CCCN1C(=O)C(CCC(=O)O)NC(=O)C1CCC(=O)N1` (stereo not drawn) [pGlu-Glu-Pro-Amide] ([pGlu]-Glu-Pro-NH2; configuration not given here), the “SGLT2/SGLT1 ACTIVITY RATIO, first concentration” value (hSGLT2) is reported as 1.0 and the “SGLT2/SGLT1 ACTIVITY RATIO, second concentration” value (hSGLT2) is reported as 1.0.

For `CN(C)CCOC(C)(c1ccccc1)c1ccccc1` [Moxastine HCl], the “SGLT2/SGLT1 ACTIVITY RATIO 5 uM Mean” value (hSGLT2) was 0.9.

With `CC=C(C)C(=O)O[C@H]1[C@@H](OC(C)=O)c2c(ccc3ccc(=O)oc23)OC1(C)C` [praeruptorin C] the activity (SGLT1; compound, mean, normalized 1-NBD-glucose uptake, CHO-hSGLT1 cells) was 90%.

`C1CCN2C[C@@H]3C[C@@H](CN4CCCC[C@@H]34)[C@H]2C1` [(-)-Sparteine] was tested, and the “SGLT2/SGLT1 ACTIVITY RATIO, first concentration” value (hSGLT2) was 1.0 and the “SGLT2/SGLT1 ACTIVITY RATIO, second concentration” value (hSGLT2) was 0.9.

`C1CCN2C[C@H]3C[C@H](CN4CCCC[C@@H]34)[C@H]2C1` [(+)-Sparteine] was tested, and the “SGLT2/SGLT1 ACTIVITY RATIO, first concentration” value (hSGLT2) was 1.0 and the “SGLT2/SGLT1 ACTIVITY RATIO, second concentration” value (hSGLT2) was 1.0.

In the case of `C/C=C(\C)C(=O)O[C@H]1[C@@H](OC(C)=O)c2c(ccc3ccc(=O)oc23)OC1(C)C` [(+)‐praeruptorin A], the “SGLT2/SGLT1‐50μmol/L (ratio of SGLT2 to SGLT1 activities with 50 μmol/L inhibitor)” value (SGLT1) is reported as 2.

In the case of `OC(CCN1CCCC1)(c1ccccc1)C1CCCCC1` (stereo not drawn) [procyclidine, reference compound], the “SGLT1/2 inhibition stated in words” value (SGLT1) is reported as “novel SGLT1/2 inhibitors”.

For `Cc1cccc(C)c1NC(=O)C1CCCCN1C` (stereo not drawn) [mepivacaine, reference compound], the inhibition at 50 µM (SGLT1; [1]) was 11%.

`C/C=C(/C)C(=O)O[C@H]1C[C@@](C)(O)C(=O)[C@@H](OC(=O)/C(C)=C\C)[C@@]2(C)CC[C@@](O)(C(C)C)[C@H]12` [Laserpitin] was tested, and the “SGLT2/SGLT1 ACTIVITY RATIO, first concentration” value (hSGLT2) was 1.0 and the “SGLT2/SGLT1 ACTIVITY RATIO, second concentration” value (hSGLT2) was 1.0.
